This is an account of results in patent publication US8658697B2 (priority 2004, dated 2014).

For orientation: pEC50 means the EC50 on a negative log10 scale, so that one unit is a factor of ten.

pEC50: −log10 of the molar value. Bounds are passed on as bounds.

The test system of the assay is Tacaribe virus (TRVL 11573). Kind of assay: microbe, parasite or virus in culture. The format is cell-based. As to conditions: Mammarenavirus tacaribeense, Vero, read-out: Tacaribe EC50.
Take `Cc1ccccc1S(=O)(=O)NNC(=O)NC(C)(C(F)(F)F)C(F)(F)F` [Example 18, N-2-(1,1,1,3,3,3-Hexafluoro-2-methylpropyl)-2-[(2-methoxyphenyl)sulfonyl]hydrazine-1-carboxamide]: the negative logarithm of the EC50 (pEC50) is 6.00 to 6.30.

In the case of `CC1CCN(C(=O)NC(C)(C(F)(F)F)C(F)(F)F)CC1` [Example 70, 4-Methyl-1-piperidine-1-(2,2,2-trifluoro-1-methyl-1-trifluoromethylethyl)-carboxamide], the pEC50 is 5.30 to 6.00.

Regarding `CC(NC(=O)Nc1ccc(C(F)(F)F)cc1)(C(F)(F)F)C(F)(F)F` [Example 56, 1-(4-Trifluoromethylphenyl)-3-(2,2,2-trifluoro-1-methyl-1-trifluoromethylethyl)-urea], the pEC50 is 6.00 to 6.30.

Consider `CC(NC(=O)NNS(=O)(=O)c1ccccc1C(F)(F)F)(C(F)(F)F)C(F)(F)F` [Example 24, N-2-(1,1,1,3,3,3-Hexafluoro-2-methylpropyl)-2-[(2-trifluoromethylphenyl)sulfonyl] hydrazine-1-carboxamide], for which the pEC50 was 5.30 to 6.00.

For `CC(NC(=O)Nc1ccc(F)cc1)(C(F)(F)F)C(F)(F)F` [Example 92, 1-(4-Fluorophenyl)-3-(2,2,2-trifluoro-1-methyl-1-trifluoromethylethyl)-urea], the pEC50 is < 5.30.

In the case of `CC(=O)c1ccccc1NC(=O)NC(C)(C(F)(F)F)C(F)(F)F` [Example 53, 1-(2-Acetylphenyl)-3-(2,2,2-trifluoro-1-methyl-1-trifluoromethylethyl)-urea], the pEC50 was 6.00 to 6.30.

For `CC(NC(=O)Nc1cccc(OC(F)(F)F)c1)(C(F)(F)F)C(F)(F)F` [Example 68, 1-(3-Trifluoromethoxyphenyl)-3-(2,2,2-trifluoro-1-methyl-1-trifluoromethylethyl)-urea], the pEC50 was 5.30 to 6.00.

For `CC(NC(=O)Nc1ccccc1S(N)(=O)=O)(C(F)(F)F)C(F)(F)F` [Example 66, 2-[3-(1,1-Bis-trifluoromethylethyl)-ureido]benzenesulfonamide], the pEC50 is 5.30 to 6.00.

Consider `Cc1ccc(S(=O)(=O)NNC(=O)N(C)C(C)(C(F)(F)F)C(F)(F)F)cc1` [Example 46, N-2-(1,1,1,3,3,3-Hexafluoro-2-methylpropyl)-2-[(4-methylphenyl)sulfonyl]hydrazine-1-methylcarboxamide], for which the pEC50 was < 5.30.

As to `CC(NC(=O)NNS(=O)(=O)c1cccc(Br)c1)(C(F)(F)F)C(F)(F)F` [Example 9, N-2-(1,1,1,3,3,3-Hexafluoro-2-methylpropyl)-2-[(3-bromophenyl)sulfonyl)hydrazine-1-carboxamide], the pEC50 was > 6.30.

For `CC(NC(=O)NNS(=O)(=O)c1ccc(-c2csnn2)cc1)(C(F)(F)F)C(F)(F)F` [Example 8, N-2-(1,1,1,3,3,3-Hexafluoro-2-methylpropyl)-2-[(4-(4-[1,2,3]thiadiazolyl)phenyl)sulfonyl] hydrazine-1-carboxamide], the pEC50 is > 6.30.

Take `CC(NC(=O)Nc1ccc2ccccc2c1)(C(F)(F)F)C(F)(F)F` [Example 71, 1-Naphthalen-2-yl-3-(2,2,2-trifluoro-1-methyl-1-trifluoromethylethyl)-urea]: the pEC50 was 5.30 to 6.00.

Consider `CC(NC(=O)Nc1cccc(F)c1)(C(F)(F)F)C(F)(F)F` [Example 80, 1-(3-fluorophenyl)-3-(2,2,2-trifluoro-1-methyl-1-trifluoromethylethyl)-urea], for which the pEC50 was 5.30 to 6.00.

Turning to `CC(NC(=O)N1CCC(c2ccccc2)CC1)(C(F)(F)F)C(F)(F)F` [Example 60, 4-Phenylpiperidin-1-yl-1-(2,2,2-trifluoro-1-methyl-1-trifluoromethylethyl)-carboxamide], the pEC50 is 5.30 to 6.00.

For `CC(NC(=O)Nc1c(F)cccc1F)(C(F)(F)F)C(F)(F)F` [Example 62, 1-(2,6-Difluorophenyl)-3-(2,2,2-trifluoro-1-methyl-1-trifluoromethylethyl)-urea], the pEC50 was 5.30 to 6.00.

Turning to `CC(NC(=O)NNS(=O)(=O)c1ccccc1Cl)(C(F)(F)F)C(F)(F)F` [Example 26, N-2-(1,1,1,3,3,3-Hexafluoro-2-methylpropyl)-2-[(2-chlorophenyl)sulfonyl]hydrazine-1-carboxamide], the pEC50 is 5.30 to 6.00.

Regarding `Cc1ccc(S(=O)(=O)NN(C)C(=O)NC(C)(C(F)(F)F)C(F)(F)F)cc1` [Example 35], the pEC50 was 5.30 to 6.00.

For the molecule `Cn1cnc(S(=O)(=O)NNC(=O)NC(C)(C(F)(F)F)C(F)(F)F)c1` [Example 49, N-2-(1,1,1,3,3,3-Hexafluoro-2-methylpropyl)-2-[(1-methylimidazol-4-yl)sulfonyl]hydrazine-1-carboxamide], the pEC50 was < 5.30.

As for `CC(NC(=O)NNS(=O)(=O)c1ccc(OC(F)(F)F)cc1)(C(F)(F)F)C(F)(F)F` [Example 15, N-2-(1,1,1,3,3,3-Hexafluoro-2-methylpropyl)-2-[(4-trifluoromethoxyphenyl)sulfonyl] hydrazine-1-carboxamide], the pEC50 is 6.00 to 6.30.

For the molecule `CC(NC(=O)NNS(=O)(=O)c1ccc(Cl)c(F)c1)(C(F)(F)F)C(F)(F)F` [Example 14, N-2-(1,1,1,3,3,3-Hexafluoro-2-methylpropyl)-2-[(3-fluoro-4-chloro-phenyl)sulfonyl]hydrazine-1-carboxamide], the pEC50 was 6.00 to 6.30.

Consider `COc1cccc(S(=O)(=O)NNC(=O)NC(C)(C(F)(F)F)C(F)(F)F)c1` [Example 17, N-2-(1,1,1,3,3,3-Hexafluoro-2-methylpropyl)-2-[(3-methoxyphenyl)sulfonyl]hydrazine-1-carboxamide], for which the pEC50 is 6.00 to 6.30.

Turning to `COc1cccc(NC(=O)NC(C)(C(F)(F)F)C(F)(F)F)c1` [Example 77, 1-(3-Methoxyphenyl)-3-(2,2,2-trifluoro-1-methyl-1-trifluoromethylethyl)-urea], the pEC50 is 5.30 to 6.00.

`Cc1cccc(NC(=O)NC(C)(C(F)(F)F)C(F)(F)F)c1` [Example 86, 1-(3-Methylphenyl)-3-(2,2,2-trifluoro-1-methyl-1-trifluoromethylethyl)-urea]: the pEC50 is < 5.30.

For the molecule `CC(NC(=O)Nc1ccccc1OC(F)(F)C(F)F)(C(F)(F)F)C(F)(F)F` [Example 78, 1-(2-(1,1,2,2-Tetrafluoroethoxy)phenyl)-3-(2,2,2-trifluoro-1-methyl-1-trifluoromethylethyl)-urea], the pEC50 was 5.30 to 6.00.

With `CC(NC(=O)NNS(=O)(=O)c1ccccc1F)(C(F)(F)F)C(F)(F)F` [Example 41, N-2-(1,1,1,3,3,3-Hexafluoro-2-methylpropyl)-2-[(2-fluorophenyl)sulfonyl]hydrazine-1-carboxamide], the pEC50 is 5.30 to 6.00.

`CC(NC(=O)Nc1ccc(OC(F)(F)F)cc1)(C(F)(F)F)C(F)(F)F` [Example 69, 1-(4-Trifluoromethoxyphenyl)-3-(2,2,2-trifluoro-1-methyl-1-trifluoromethylethyl)-urea]: the pEC50 was 5.30 to 6.00.

In the case of `CN(C)c1cccc2c(S(=O)(=O)NNC(=O)NC(C)(C(F)(F)F)C(F)(F)F)cccc12` [Example 4, N-2-(1,1,1,3,3,3-Hexafluoro-2-methylpropyl)-2-[5-(1-dimethylamino-naphthyl)sulfonyl]hydrazine-1-carboxamide], the pEC50 was > 6.30.
